For test [1], the system named is cytokine signaling via JAK. Briefly: Signal assay in rat whole blood (STAT phosphorylation assay). It counts as cell-based. The settings on record: T-cell; female Lewis rat whole blood, rat IL-6 100 ng/mL, phosphated STAT-1 in CD3 positive T cells. As to the method:
2. Signal Assay in Rat Whole Blood
The inhibitory activities of the compounds of the present invention obtained in Synthetic Examples 1 and 2 against cytokine signaling via JAK were measured by STAT phosphorylation assay using rat whole blood.
Female Lewis rats were purchased from CHARLES RIVER LABORATORIES JAPAN, INC.
Rat IL-6 was purchased from PeproTech.
Each compound was used at three consecutive concentrations of 1 μM, 0.1 μM and 0.01 μM, or 10 μM, 1 μM and 0.1 μM.
The concentration of rat IL-6 was 100 ng/mL.
The concentration of FITC-CD3 was 1 μg/mL.
The blood and a compound were put into each Costar assay block tube and incubated at 37° C. for 15 minutes, then incubated with FITC-CD3 at 37° C. for 15 minutes, incubated with rat IL-6 at 37° C. for 15 minutes and incubated with 10 times as much of BD Phosflow Lyse/Fix Buffer as the blood at 37° C. for 12 minutes. Centrifugal separation was carried out at 5,884 m/s^2 for 6 minutes with a centrifugal separator to precipitate the cells, and the supernatants were removed.
(§1) The cell pellets were washed with 1 mL of phosphate buffered saline (PBS), then incubated with 0.6 mL of BD Phosflow Perm Buffer III on ice for 30 minutes and centrifuged at 5,884 m/s^2 for 6 minutes by means of a centrifugal separator to precipitate the cells, and the supernatants were removed.
The cell pellets were washed with 0.3 mL of BD Pharmingen Stain Buffer and incubated with 0.1 mL of BD Pharmingen Stain Buffer and 10 μL of BD Phosflow STAT-1 at room temperature for 30 minutes. After addition of 0.1 mL of BD Pharmingen Stain Buffer, the cells were centrifuged at 5,884 m/s^2 for 6 minutes by means of a centrifugal separator to precipitate the cells, and the supernatants were removed.
(§2) The cell pellets were washed with 0.3 mL of BD Pharmingen Stain Buffer, and 0.12 mL of BD Pharmingen Stain Buffer was added. The cytokine signaling inhibition was measured with FACS Cantoll (manufactured by BD) by detecting FITC-labeled CD3 positive T cells and detecting the amount of phosphated STAT-1 protein in the cells as the PE fluorescence. From the plot of the logarithm of a compound concentration and inhibitory activity, the IC50 value was calculated.

The test system of test [2] is cytokine signaling via JAK. The experiment in a line: Signal assay in human whole blood (STAT phosphorylation assay). It counts as cell-based. The settings on record: T-cell, human IL-6 100 ng/mL, phosphated STAT-1 in CD3 positive T cells. Here is the method: 3. Signal Assay in Human Whole Blood
The inhibitory activities of the compounds of the present invention obtained in Synthetic Examples 3 to 7 against cytokine signaling via JAK were measured by STAT phosphorylation assay using human whole blood.
Human whole blood was collected from healthy humans.
Human IL-6 was purchased from R&D systems.
Each compound was used at six concentrations of 3 μM, 1.5 μM, 0.75 μM, 0.38 μM, 0.19 μM and 0.093 μM, at six concentrations of 2 μM, 1 μM, 0.5 μM, 0.25 μM, 0.13 μM and 0.063 μM, or at six concentrations of 10 μM, 5 μM, 2.5 μM, 1.25 μM, 0.63 μM and 0.31 μM.
The concentration of human IL-6 was 100 ng/mL.
Human blood and a compound were put into each Costar assay block tube and incubated at 37° C. for 30 minutes, then incubated with human IL-6 at 37° C. for 15 minutes and incubated with 10 times as much of BD Phosflow Lyse/Fix Buffer as the blood at 37° C. for 12 minutes. Centrifugal separation was carried out at 5,884 m/s^2 for 6 minutes with a centrifugal separator to precipitate the cells, and the supernatants were removed.
as §1
The cell pellets were washed with 0.3 mL of BD Pharmingen Stain Buffer and incubated with 0.1 mL of BD Pharmingen Stain Buffer, 10 μL of BD Phosflow STAT-1 and 5 μL of FITC-hCD3 at room temperature for 30 minutes. After addition of 0.1 mL of BD Pharmingen Stain Buffer, the cells were centrifuged at 5,884 m/s^2 for 6 minutes by means of a centrifugal separator to precipitate the cells, and the supernatants were removed.
as §2

The target of another test is JAK1 (Homo sapiens (Human), UniProt P23458). Briefly: JAK1 enzyme assay. It counts as biochemical. Conditions: enzyme 0.5 μg/mL, ATP 70 μM. As to the method: (§3) The JAK inhibitory activities of compounds of the present invention were measured.
(§4) The enzymes (JAK1, JAK2, JAK3 and Tyk2) were purchased from Carna Biosciences, Inc.
(§5) As the substrate for the enzymes (hereinafter referred to as the substrate), LANCE Ultra ULight-JAK-1 (Tyr1023) Peptide (manufactured by PerkinElmer Co., Ltd.) was used.
(§6) As the antibody for detecting phosphorylation of the substrate, LANCE Ultra Europium-anti-phospho tyrosine antibody (PT66) (manufactured by PerkinElmer Co., Ltd.) was used.
(§7) The compounds of the present invention, the enzymes (JAK1, JAK2, JAK3 and Tyk2), the substrate and ATP were used for the assays after diluted with the assay buffer.
(§8) The enzyme concentrations and the ATP concentrations in the respective enzyme (JAK1, JAK2, JAK3 and Tyk2) assays were as follows.
JAK1 enzyme assay; the enzyme concentration was 0.5 μg/mL, and the ATP concentration was 70 μM.
(§9) The concentration of the substrate for the enzymes was 25 nM.
(§10) Dilute solutions of compounds and enzymes were dispensed into wells of a 384-well black plate (manufactured by Greiner bio-one) and preincubated at room temperature for 5 minutes.
(§11) Then, a dilute solution of the substrate and then a dilute solution of ATP were added, and the plate was incubated at room temperature for 30 minutes.
(§12) Then, a dilute solution of EDTA and then a dilute solution of PT66 were added, and the plate was incubated at room temperature for 1 hour.
(§13) The fluorescences were measured with ARVO-HTS, and from the plot of logarithm of a compound concentration and inhibitory activity, the IC50 value was calculated.

The target in a further test is JAK2 (Homo sapiens (Human), UniProt O60674). Briefly: JAK2 enzyme assay. The settings on record: enzyme 0.013 μg/mL, ATP 10 μM. The format is biochemical. As to the method: as §3, §4, §5, §6, §7, §8
JAK2 enzyme assay; the enzyme concentration was 0.013 μg/mL, and the ATP concentration was 10 μM.
as §9, §10, §11, §12, §13

A further test deals with JAK3 (Homo sapiens (Human), UniProt P52333). The experiment in a line: JAK3 enzyme assay. It counts as biochemical. Conditions: enzyme 0.020 μg/mL, ATP 3 μM. As to the method:
as §3, §4, §5, §6, §7, §8
JAK3 enzyme assay; the enzyme concentration was 0.020 μg/mL, and the ATP concentration was 3 μM.
as §9, §10, §11, §12, §13

The target in another test is Tyk2 (Homo sapiens (Human), UniProt P29597). The experiment in a line: Tyk2 enzyme assay. The format is biochemical. Conditions: enzyme 0.25 μg/mL, ATP 20 μM. Here is the method:
as §3, §4, §5, §6, §7, §8
Tyk2 enzyme assay; the enzyme concentration was 0.25 μg/mL and the ATP concentration was 20 μM.
as §9, §10, §11, §12, §13

As a reminder, the IC50 is the point on the concentration scale where inhibition reaches its midpoint. Higher therefore signals weaker potency in that assay.

Sequence of JAK3 (P52333 whole entry): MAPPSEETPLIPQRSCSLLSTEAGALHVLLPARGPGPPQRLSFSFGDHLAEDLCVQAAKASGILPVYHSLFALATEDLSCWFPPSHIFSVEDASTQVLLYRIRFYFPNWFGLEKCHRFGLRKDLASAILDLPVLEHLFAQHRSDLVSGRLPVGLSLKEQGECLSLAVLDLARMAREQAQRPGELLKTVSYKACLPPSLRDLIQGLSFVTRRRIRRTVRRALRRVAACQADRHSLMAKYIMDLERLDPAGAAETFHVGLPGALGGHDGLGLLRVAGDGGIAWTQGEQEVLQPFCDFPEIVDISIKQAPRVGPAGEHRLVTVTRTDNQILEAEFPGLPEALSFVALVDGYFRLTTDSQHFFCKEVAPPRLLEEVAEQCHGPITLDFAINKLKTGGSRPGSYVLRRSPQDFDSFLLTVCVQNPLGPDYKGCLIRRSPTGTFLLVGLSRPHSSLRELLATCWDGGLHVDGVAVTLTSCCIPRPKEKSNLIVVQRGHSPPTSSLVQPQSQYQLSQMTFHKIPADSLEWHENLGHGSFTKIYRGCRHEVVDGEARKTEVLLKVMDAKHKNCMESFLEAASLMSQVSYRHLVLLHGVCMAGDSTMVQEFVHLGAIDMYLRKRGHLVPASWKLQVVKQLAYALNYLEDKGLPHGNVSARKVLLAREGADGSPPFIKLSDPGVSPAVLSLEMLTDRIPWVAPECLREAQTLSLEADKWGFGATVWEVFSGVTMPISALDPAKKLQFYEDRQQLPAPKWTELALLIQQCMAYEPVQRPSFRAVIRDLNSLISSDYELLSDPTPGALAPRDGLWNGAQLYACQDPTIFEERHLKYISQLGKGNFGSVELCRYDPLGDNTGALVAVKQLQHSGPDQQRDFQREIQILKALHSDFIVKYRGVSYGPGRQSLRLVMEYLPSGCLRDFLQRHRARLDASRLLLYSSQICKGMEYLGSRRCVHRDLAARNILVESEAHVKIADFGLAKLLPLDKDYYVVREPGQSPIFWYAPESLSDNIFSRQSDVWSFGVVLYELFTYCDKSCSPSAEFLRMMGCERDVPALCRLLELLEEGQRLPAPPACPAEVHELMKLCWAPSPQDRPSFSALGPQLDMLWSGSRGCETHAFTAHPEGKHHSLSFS
Sequence of JAK1 (P23458 whole entry): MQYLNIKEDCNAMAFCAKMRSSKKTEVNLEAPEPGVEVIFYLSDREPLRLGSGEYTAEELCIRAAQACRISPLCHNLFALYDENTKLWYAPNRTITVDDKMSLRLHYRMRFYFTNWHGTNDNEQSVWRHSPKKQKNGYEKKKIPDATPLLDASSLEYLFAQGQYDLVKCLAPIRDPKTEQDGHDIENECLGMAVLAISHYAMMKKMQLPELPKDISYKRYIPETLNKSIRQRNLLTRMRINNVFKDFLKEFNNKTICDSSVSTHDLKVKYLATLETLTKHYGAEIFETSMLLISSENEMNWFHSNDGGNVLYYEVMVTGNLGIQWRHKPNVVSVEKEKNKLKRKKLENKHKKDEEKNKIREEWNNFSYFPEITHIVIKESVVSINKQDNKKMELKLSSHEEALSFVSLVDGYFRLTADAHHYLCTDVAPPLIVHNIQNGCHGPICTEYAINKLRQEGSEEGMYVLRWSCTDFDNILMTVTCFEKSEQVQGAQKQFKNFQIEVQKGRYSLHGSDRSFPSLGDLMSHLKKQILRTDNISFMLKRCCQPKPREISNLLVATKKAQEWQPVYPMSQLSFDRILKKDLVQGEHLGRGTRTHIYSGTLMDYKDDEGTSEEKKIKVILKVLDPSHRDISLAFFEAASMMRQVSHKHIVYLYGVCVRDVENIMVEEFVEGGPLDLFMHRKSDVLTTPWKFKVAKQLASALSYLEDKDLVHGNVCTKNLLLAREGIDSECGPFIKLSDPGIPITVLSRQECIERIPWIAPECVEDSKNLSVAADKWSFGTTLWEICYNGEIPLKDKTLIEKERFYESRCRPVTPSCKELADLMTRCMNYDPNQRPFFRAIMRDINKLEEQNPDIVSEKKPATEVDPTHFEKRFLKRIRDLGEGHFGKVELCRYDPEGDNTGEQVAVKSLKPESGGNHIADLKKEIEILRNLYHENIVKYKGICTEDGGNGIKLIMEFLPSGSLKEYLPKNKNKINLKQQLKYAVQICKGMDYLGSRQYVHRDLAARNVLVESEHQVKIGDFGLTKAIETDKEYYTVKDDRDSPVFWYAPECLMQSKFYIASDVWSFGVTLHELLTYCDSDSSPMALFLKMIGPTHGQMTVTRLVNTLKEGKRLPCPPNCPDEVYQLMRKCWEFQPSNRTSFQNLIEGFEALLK
Sequence of JAK2 (O60674 whole entry): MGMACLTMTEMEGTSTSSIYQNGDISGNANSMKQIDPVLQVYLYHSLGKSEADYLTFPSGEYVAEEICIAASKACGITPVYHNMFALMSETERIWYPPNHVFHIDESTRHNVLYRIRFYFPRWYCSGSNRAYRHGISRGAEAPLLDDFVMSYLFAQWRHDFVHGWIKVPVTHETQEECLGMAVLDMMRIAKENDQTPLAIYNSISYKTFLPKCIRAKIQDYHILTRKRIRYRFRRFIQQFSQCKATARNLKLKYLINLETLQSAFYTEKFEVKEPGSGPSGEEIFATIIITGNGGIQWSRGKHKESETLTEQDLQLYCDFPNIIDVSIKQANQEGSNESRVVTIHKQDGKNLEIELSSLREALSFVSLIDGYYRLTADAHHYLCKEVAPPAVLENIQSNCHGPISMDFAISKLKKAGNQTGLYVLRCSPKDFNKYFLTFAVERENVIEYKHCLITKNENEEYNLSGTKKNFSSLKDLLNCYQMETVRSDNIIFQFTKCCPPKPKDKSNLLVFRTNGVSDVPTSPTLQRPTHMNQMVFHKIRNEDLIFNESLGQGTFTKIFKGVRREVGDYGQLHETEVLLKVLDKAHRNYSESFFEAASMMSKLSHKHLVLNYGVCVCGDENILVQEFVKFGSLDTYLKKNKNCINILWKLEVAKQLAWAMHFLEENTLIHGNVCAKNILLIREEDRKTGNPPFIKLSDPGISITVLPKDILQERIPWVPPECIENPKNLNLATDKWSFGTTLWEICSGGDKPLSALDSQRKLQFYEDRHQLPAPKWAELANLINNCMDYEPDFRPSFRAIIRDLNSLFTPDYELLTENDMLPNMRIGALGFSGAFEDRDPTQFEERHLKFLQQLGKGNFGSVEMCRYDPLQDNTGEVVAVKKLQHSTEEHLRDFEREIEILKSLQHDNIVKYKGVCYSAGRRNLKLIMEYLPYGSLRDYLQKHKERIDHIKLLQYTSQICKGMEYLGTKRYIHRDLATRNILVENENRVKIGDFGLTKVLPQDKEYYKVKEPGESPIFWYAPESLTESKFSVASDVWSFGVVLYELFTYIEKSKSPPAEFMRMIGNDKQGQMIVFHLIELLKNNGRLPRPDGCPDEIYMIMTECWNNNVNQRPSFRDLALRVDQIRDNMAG
Sequence of Tyk2 (P29597 whole entry): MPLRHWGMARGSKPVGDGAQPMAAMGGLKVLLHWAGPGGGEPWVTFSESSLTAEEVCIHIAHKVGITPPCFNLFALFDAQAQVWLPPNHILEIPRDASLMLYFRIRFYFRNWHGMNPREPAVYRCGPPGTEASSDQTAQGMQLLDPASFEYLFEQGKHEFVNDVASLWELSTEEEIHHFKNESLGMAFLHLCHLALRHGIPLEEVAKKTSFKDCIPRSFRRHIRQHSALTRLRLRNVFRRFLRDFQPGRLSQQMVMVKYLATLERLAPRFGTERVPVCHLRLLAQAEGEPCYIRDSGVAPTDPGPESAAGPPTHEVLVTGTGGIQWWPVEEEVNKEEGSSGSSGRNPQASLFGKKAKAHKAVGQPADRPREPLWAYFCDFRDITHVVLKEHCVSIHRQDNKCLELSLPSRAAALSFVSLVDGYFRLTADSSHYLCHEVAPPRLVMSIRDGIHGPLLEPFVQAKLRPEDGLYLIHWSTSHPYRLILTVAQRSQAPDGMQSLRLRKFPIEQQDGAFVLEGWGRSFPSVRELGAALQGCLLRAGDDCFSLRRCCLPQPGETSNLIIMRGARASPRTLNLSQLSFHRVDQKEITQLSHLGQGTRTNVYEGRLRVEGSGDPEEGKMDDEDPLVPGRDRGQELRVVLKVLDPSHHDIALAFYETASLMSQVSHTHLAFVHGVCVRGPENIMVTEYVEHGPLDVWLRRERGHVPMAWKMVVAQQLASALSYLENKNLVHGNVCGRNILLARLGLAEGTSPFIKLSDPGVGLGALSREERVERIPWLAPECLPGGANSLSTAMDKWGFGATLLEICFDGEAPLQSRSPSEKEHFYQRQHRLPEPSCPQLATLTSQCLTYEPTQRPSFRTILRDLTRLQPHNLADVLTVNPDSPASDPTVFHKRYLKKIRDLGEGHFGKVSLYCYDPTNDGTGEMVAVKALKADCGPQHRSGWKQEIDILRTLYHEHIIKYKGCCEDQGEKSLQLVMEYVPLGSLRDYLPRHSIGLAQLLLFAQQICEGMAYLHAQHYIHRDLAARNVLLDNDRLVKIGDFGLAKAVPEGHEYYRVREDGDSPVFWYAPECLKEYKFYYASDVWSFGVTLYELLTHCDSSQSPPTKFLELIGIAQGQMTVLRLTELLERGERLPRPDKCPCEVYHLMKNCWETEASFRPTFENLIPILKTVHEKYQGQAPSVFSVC

For the molecule `O=c1[nH]c(=O)n(C2CCC(CNCC(F)(F)F)CC2)c2c1cnc1[nH]ccc12` (stereo not shown) [A], in test [1], the IC50 was 2400 nM.

The molecule `N#CCCN(CCC#N)CC1CCC(n2c(=O)[nH]c(=O)c3cnc4[nH]ccc4c32)CC1` (stereo not shown) [Compound B] displayed an IC50 in test [1] of 1300 nM.

In test [2], `O=c1ccn(C2CCCCC2)c2c1cnc1[nH]ccc12` [Compound E, reference compound] came in with an IC50 of 1300 nM.

`O=C1CCN(C2CCC(CO)CC2)c2c1cnc1[nH]ccc21` (stereo not shown) [Compound F, reference compound] came in with a half-maximal inhibitory concentration (IC50) in test [2] of 5900 nM.

Consider `COC1CCC(n2ccc(=O)c3cnc4[nH]ccc4c32)CC1` (stereo not shown) [Compound G, reference compound], for which, in test [2], the midpoint of inhibition, the IC50, lay at 6500 nM.

On to `Cc1nc(CN2CCC(n3ccc(=O)c4cnc5[nH]ccc5c43)CC2)cs1` [Compound J, reference compound], for which the IC50 in test [2] came out at 7600 nM.

Turning to `N#CC[C@@H](NC[C@H]1CC[C@H](n2c(=O)[nH]c(=O)c3cnc4[nH]ccc4c32)CC1)C(F)(F)F` [Synthetic Example 1, (R)-3-({[trans-4-(2,4-Dioxo-2,3,4,7-tetrahydro-1H-pyrrolo[3′,2′:5,6]pyrido[4,3-d]pyrimidin-1-yl)cyclohexyl]methyl}amino)-4,4,4-trifluorobutanenitrile], the IC50 at JAK1 turned out to be 0.99 nM; at JAK2, 4.6 nM; against JAK3 it was 15 nM; on Tyk2, 22 nM; in test [1] it was 390 nM.

With `O=c1[nH]c(=O)n([C@H]2CC[C@H](COCCC(F)(F)F)CC2)c2c1cnc1[nH]ccc12` [Synthetic Example 2, 1-{trans-4-[(3,3,3-Trifluoropropoxy)methyl]cyclohexyl}-1H-pyrrolo[3′,2′:5,6]pyrido[4,3-d]pyrimidine-2,4(3H,7H)-dione], the IC50 against JAK1 was found to be 0.35 nM; at JAK2 it was 1.5 nM; against JAK3 it was 2.9 nM; against Tyk2 it was 26 nM; in test [1], 270 nM.

Regarding `N#CC[C@@H](NC[C@H]1CC[C@H](n2ccc(=O)c3cnc4[nH]ccc4c32)CC1)C(F)(F)F` [Synthetic Example 3, (R)-4,4,4-Trifluoro-3-({[trans-4-(4-oxo-4,7-dihydro-1H-pyrrolo[2,3-h][1,6]naphthyridin-1-yl)cyclohexyl]methyl}amino)butanenitrile], the IC50 against JAK1 is 1.7 nM; on JAK2, 5.1 nM; against JAK3, 10 nM; against Tyk2, 18 nM; in test [2], 440 nM.

On to `Cc1cnn(C[C@H]2CC[C@H](n3ccc(=O)c4cnc5[nH]ccc5c43)CC2)c1` [Synthetic Example 4, 1-{trans-4-[(4-Methyl-1H-pyrazol-1-yl)methyl]cyclohexyl}-1H-pyrrolo[2,3-h][1,6]naphthyridin-4(7H)-one], for which the IC50 on JAK1 worked out at 0.41 nM; on JAK2, 1.9 nM; at JAK3, 7.1 nM; on Tyk2 it was 39 nM; in test [2], 300 nM.

For the molecule `O=c1ccn([C@H]2CC[C@H](COCC(F)(F)F)CC2)c2c1cnc1[nH]ccc12` [Synthetic Example 5, 1-{trans-4-[(2,2,2-Trifluoroethoxy)methyl]cyclohexyl}-1H-pyrrolo[2,3-h][1,6]naphthyridin-4(7H)-one], the IC50 at JAK1 is 0.59 nM; at JAK3, 2.7 nM; on Tyk2, 10 nM; in test [2] it was 170 nM.

As to `O=c1ccn([C@H]2CC[C@H](COCCC(F)(F)F)CC2)c2c1cnc1[nH]ccc12` [Synthetic Example 6, 1-{trans-4-[(3,3,3-Trifluoropropoxy)methyl]cyclohexyl}-1H-pyrrolo[2,3-h][1,6]naphthyridin-4(7H)-one], the IC50 was 0.68 nM against JAK1; 1.6 nM against JAK2; 2.5 nM at JAK3; 19 nM against Tyk2; 130 nM in test [2].

Take `N#CC[C@@H](OC[C@H]1CC[C@H](n2ccc(=O)c3cnc4[nH]ccc4c32)CC1)C(F)(F)F` [Synthetic Example 7, (R)-4,4,4-Trifluoro-3-{[trans-4-(4-oxo-4,7-dihydro-1H-pyrrolo[2,3-h][1,6]naphthyridin-1-yl)cyclohexyl]methoxy}butanenitrile]: the IC50 at JAK1 came to 0.74 nM; against JAK2 it was 2 nM; against JAK3, 5.1 nM; against Tyk2, 11 nM; in test [2], 150 nM.

The record behind these values is patent US10385052B2, “Tricyclic compound and JAK inhibitor” (NISSAN CHEMICAL CORPORATION, priority 2014, dated 2019).
